Experimental data from patent EP0354453A2, “Antimicrobial agent for animals” (priority 1988, dated 1990).
Converted amounts (≈) assume the structure as drawn. Structures can show the parent of a compound that is named as a salt. Where two headings read alike, the source gives them in different places. Values belong to the molecule of their own block, whether it stands above or below them.

Columns and labels:
[1] = tested on: Mycoplasma gallisepticum Strain DP-1047; assay: in vitro antimicrobial activity (MIC) in Frey liquid medium; assay type: cell-based; settings: Mycoplasmoides gallisepticum
Procedure: (§1) Various test strains of Mycoplasma gallisepticum derived from chicken were cultured in a Frey liquid medium for Mycoplasma for 3 days. The culture broth containing about 10⁸/ml cells was diluted to a volume of 100 times. The diluted broth was inoculated into Frey liquid media for Mycoplasma to which the compounds of this invention were added at prescribed concentrations. The cells were incubated at 37°C for 3-5 days while daily observing the color of the media. Among the culture broths maintaining yellow color at the time when the control to which no test compound was added turned red, the concentration of the broth having the minimum concentration was taken as the MIC of the compound.

[2] = tested on: Mycoplasma gallisepticum Strain T-7; assay: as above; assay type: cell-based; settings: Mycoplasmoides gallisepticum, Mycoplasma gallisepticum Strain T-7, from chicken, 37°C, 3-5 days
Procedure: as §1

[3] = tested on: Mycoplasma gallisepticum Strain T-2; assay: as above; assay type: cell-based; settings: Mycoplasmoides gallisepticum
Procedure: as §1

[4] = tested on: Mycoplasma gallisepticum Strain 2012; assay: as above; assay type: cell-based; settings: Mycoplasmoides gallisepticum, STRAIN2012
Procedure: as §1

[5] = tested on: Mycoplasma gallisepticum Strain 2004; assay: as above; assay type: cell-based; settings: Mycoplasmoides gallisepticum, STRAIN2004
Procedure: as §1

[6] = tested on: Staphylococcus aureus Yamaguchi 6; assay: in vitro antimicrobial activity (MIC), agar dilution, Part 2; assay type: cell-based
Procedure: (§2) Test microorganisms listed in Table 2 were cultured overnight in heart infusion nutrient broth (produced by Eiken Chemical Co., Ltd.). Culture broth containing about 10⁸/ml cells was diluted to a volume of 100 times. An aliquot (about 0.05 ml) of the diluted broth was inoculated onto a Mueller Hinton agar plate (produced by Eiken Chemical Co., Ltd.) to which Compound No. 1 was added in a prescribed concentration. […]
(§3) MIC of Compounds (1)-(8) against various pathogenic bacteria derived from animals was determined in the same manner as in Example 1.

[7] = tested on: Escherichia coli 881; assay: as above; assay type: cell-based
Procedure: as §2, §3

[8] = tested on: Escherichia coli 139; assay: as above; assay type: cell-based
Procedure: as §2, §3

[9] = tested on: Salmonella typhimurium 103; assay: as above; assay type: cell-based; settings: Salmonella enterica
Procedure: as §2, §3

[10] = tested on: Bordetella bronchiaseptica OKM-1; assay: as above; assay type: cell-based
Procedure: as §2, §3

[11] = tested on: Escherichia coli S6W; assay: as above; assay type: cell-based
Procedure: as §2, §3

[12] = tested on: Salmonella typhimurium 569; assay: as above; assay type: cell-based
Procedure: as §2, §3

[13] = tested on: Pasteurella multocida DB-12-1; assay: as above; assay type: cell-based; settings: DB121
Procedure: as §2, §3

[14] = Acute toxicity test, intravenous injection; assay type: in vivo
Procedure: Representative test compounds, Compounds (2) and (3), were intravenously injected to mice. No fatality occurred at a dose of 200 mg/kg (10 mice/group), for Compound (2), and a dose of 200 mg/kg (6 mice/group), for Compound (3). From the results, the LD₅₀ values of the compounds are considered to be greater than 200 mg/kg.

[15] = tested on: Mycoplasma gallisepticum; assay: Effect of oral administration on chicken inoculated with Mycoplasma gallisepticum; assay type: in vivo; settings: for Chickens developing disease in air sac (naked eye observation) / No. of dead chickens: 5 tested chickens
Procedure: Mycoplasma gallisepticum cells collected from chickens having respiratory Mycoplasma infection were cultured for 3 days in a Frey liquid media for Mycoplasma. 0.2 ml of this culture broth was injected into the trachea of chickens of an average body weight of 80 g using a 1 ml disposable injection needle. Beginning from the next day following the inoculation, feeds to which Compound (1) had been added in the amount of 100 ppm, 75 ppm, or 50 ppm were freely given to the chickens for 5 days. Following the administration of Compound (1) the chickens were given feed containing no drug for a further 5 days. The surviving chickens were sacrificed and dissected. After examination of the degree of disease in the air sac, Mycoplasma gallisepticum in the infraorbital sinus, trachea, lung, and air sac were determined. […] TABLE 6 […]

[16] = Mycoplasma gallisepticum Strain DP-1047, from chicken, Frey liquid medium, 37°C, 3-5 days, read-out: MIC
[17] = Mycoplasma gallisepticum Strain T-2, from chicken, Frey liquid medium, 37°C, 3-5 days, read-out: MIC
[18] = Mycoplasma gallisepticum Strain 2012, from chicken, Frey liquid medium, 37°C, 3-5 days, read-out: MIC
[19] = Mycoplasma gallisepticum Strain 2004, from chicken, Frey liquid medium, 37°C, 3-5 days, read-out: MIC
[20] = Staphylococcus aureus Yamaguchi 6, Chicken, read-out: MIC
[21] = Escherichia coli, 881, Escherichia coli 881, Pig, read-out: MIC
[22] = Escherichia coli 139, Cow, read-out: MIC
[23] = Salmonella typhimurium 103, Chicken, read-out: MIC
[24] = Bordetella, OKM1, Bordetella bronchiaseptica OKM-1, Pig, read-out: MIC
[25] = Escherichia coli, S6W, Escherichia coli S6W, Chicken, read-out: MIC
[26] = Salmonella enterica, TYPHIMURIUM, Salmonella typhimurium 569, Pig, read-out: MIC
[27] = Pasteurella multocida DB-12-1, Pig, read-out: MIC

Compound: CCN1CCN(c2c(F)cc3c(=O)c(C(=O)O)cn4c3c2OC[C@@H]4C)CC1 [(6), 3S-9-fluoro-2,3-dihydro-3-methyl-10-(4-ethyl-1-piperazinyl)-7-oxo-7H-pyrido[1,2,3-de] [1,4]benzoxazine-6-carboxylic acid]
MIC [6, 20]: 0.2 µg/mL (≈ 0.533 µM)
MIC [7, 21]: 0.1 µg/mL (≈ 0.266 µM)
MIC [8, 22]: 0.1 µg/mL (≈ 0.266 µM)
MIC [9, 23]: 0.1 µg/mL (≈ 0.266 µM)
MIC [10, 24]: 0.2 µg/mL (≈ 0.533 µM)
MIC [11, 25]: 0.1 µg/mL (≈ 0.266 µM)
MIC [12, 26]: 0.1 µg/mL (≈ 0.266 µM)

Compound: CCN1CCN(c2c(F)cc3c(=O)c(C(=O)O)cn4c3c2OCC4C)CC1 (racemic) [Compound (2), 3(RS)-9-fluoro-2,3-dihydro-3-methyl-10-(4-ethyl-1-piperazinyl)-7-oxo-7H-pyrido[1,2,3-de] [1,4]benzoxazine-6-carboxylic acid]
MIC [1, 16]: 0.1 µg/mL (≈ 0.266 µM)
MIC [2]: 0.1 µg/mL (≈ 0.266 µM)
MIC [3, 17]: 0.1 µg/mL (≈ 0.266 µM)
MIC [4, 18]: 0.025 µg/mL (≈ 0.0666 µM)
MIC [5, 19]: 0.025 µg/mL (≈ 0.0666 µM)
fatality ([14]; mice, intravenously injected, dose of 200 mg/kg): No fatality
LD50 ([14]; mouse, in vivo, iv): > 200 mg/kg
MIC [6, 20]: 0.39 µg/mL (≈ 1.04 µM)
MIC [7, 21]: 0.1 µg/mL (≈ 0.266 µM)
MIC [8, 22]: 0.2 µg/mL (≈ 0.533 µM)
MIC [9, 23]: 0.2 µg/mL (≈ 0.533 µM)
MIC [10, 24]: 0.2 µg/mL (≈ 0.533 µM)
MIC [11, 25]: 0.1 µg/mL (≈ 0.266 µM)
MIC [12, 26]: 0.1 µg/mL (≈ 0.266 µM)
MIC [13, 27]: 0.05 µg/mL (≈ 0.133 µM)
Mycoplasma gallisepticum collected in Air sac ([15]; 50 ppm in feed for 5 days): 2.08 Logarithmic number of collected cells per 1 g of tissue
Mycoplasma gallisepticum collected in Infraorbital sinus ([15]; 50 ppm in feed for 5 days): 0/5
Mycoplasma gallisepticum collected in Lung ([15]; 50 ppm in feed for 5 days): 2.43 Logarithmic number of collected cells per 1 g of tissue
Mycoplasma gallisepticum collected in Trachea ([15]; 50 ppm in feed for 5 days): 2.96 Logarithmic number of collected cells per 1 g of tissue
Chickens developing disease in air sac (naked eye observation) ([15]; 50 ppm in feed for 5 days): 0
No. of dead chickens ([15]; 50 ppm in feed for 5 days): 0
Mycoplasma gallisepticum collected in Air sac ([15]; 75 ppm in feed for 5 days): 0 Logarithmic number of collected cells per 1 g of tissue
Mycoplasma gallisepticum collected in Infraorbital sinus ([15]; 75 ppm in feed for 5 days): 0/5
Mycoplasma gallisepticum collected in Lung ([15]; 75 ppm in feed for 5 days): 0 Logarithmic number of collected cells per 1 g of tissue
Mycoplasma gallisepticum collected in Trachea ([15]; 75 ppm in feed for 5 days): 0 Logarithmic number of collected cells per 1 g of tissue
Chickens developing disease in air sac (naked eye observation) ([15]; 75 ppm in feed for 5 days): 0
No. of dead chickens ([15]; 75 ppm in feed for 5 days): 0
Mycoplasma gallisepticum collected in Air sac ([15]; 100 ppm in feed for 5 days): 0 Logarithmic number of collected cells per 1 g of tissue
Mycoplasma gallisepticum collected in Infraorbital sinus ([15]; 100 ppm in feed for 5 days): 0/5
Mycoplasma gallisepticum collected in Lung ([15]; 100 ppm in feed for 5 days): 0 Logarithmic number of collected cells per 1 g of tissue
Mycoplasma gallisepticum collected in Trachea ([15]; 100 ppm in feed for 5 days): 0 Logarithmic number of collected cells per 1 g of tissue
Chickens developing disease in air sac (naked eye observation) ([15]; 100 ppm in feed for 5 days): 0
No. of dead chickens ([15]; 100 ppm in feed for 5 days): 0

Compound: CCN1CCN(c2c(F)cc3c(=O)c(C(=O)O)cn4c3c2OCC4C)CC1 (racemic) [Compound (8), 3(RS)-9-fluoro-2,3-dihydro-3-methyl-10-(4-ethyl-1-piperazinyl)-7-oxo-7H-pyrido[1,2,3-de] [1,4]benzoxazine-6-carboxylic acid hydrochloride hemihydrate]
MIC ([7]; Escherichia coli 881, Pig, listed as No. 8, hydrochloride hemihydrate): 0.2 µg/mL
MIC ([10]; Bordetella bronchiaseptica OKM-1, Pig, listed as No. 8, hydrochloride hemihydrate): 0.39 µg/mL
MIC ([11]; Escherichia coli S6W, Chicken, listed as No. 8, hydrochloride hemihydrate): 0.2 µg/mL
MIC ([12]; Salmonella typhimurium 569, Pig, listed as No. 8, hydrochloride hemihydrate): 0.2 µg/mL

Compound: CC(C)N1CCN(c2c(F)cc3c(=O)c(C(=O)O)cn4c3c2OCC4C)CC1 (racemic) [(4), 3(RS)-9-fluoro-2,3-dihydro-3-methyl-10-(4-iso-propyl-1-piperazinyl)-7-oxo-7H-pyrido[1,2,3-de] [1,4]benzoxazine-6-carboxylic acid]
MIC [1, 16]: 0.2 µg/mL (≈ 0.514 µM)
MIC [2]: 0.39 µg/mL (≈ 1 µM)
MIC [3, 17]: 0.39 µg/mL (≈ 1 µM)
MIC [4, 18]: 0.05 µg/mL (≈ 0.128 µM)
MIC [5, 19]: 0.05 µg/mL (≈ 0.128 µM)
MIC [6, 20]: 0.78 µg/mL (≈ 2 µM)
MIC [7, 21]: 0.39 µg/mL (≈ 1 µM)
MIC [8, 22]: 0.78 µg/mL (≈ 2 µM)
MIC [9, 23]: 0.78 µg/mL (≈ 2 µM)
MIC [10, 24]: 0.78 µg/mL (≈ 2 µM)
MIC [11, 25]: 0.78 µg/mL (≈ 2 µM)
MIC [12, 26]: 0.78 µg/mL (≈ 2 µM)
MIC [13, 27]: 0.2 µg/mL (≈ 0.514 µM)

Compound: CCn1cc(C(=O)O)c(=O)c2cc3c(cc21)OCO3 [Oxolinic acid, reference compound]
MIC [1]: > 100 µg/mL
MIC [3]: > 100 µg/mL
MIC [4]: > 100 µg/mL
MIC [5]: > 100 µg/mL
MIC ([6]; Staphylococcus aureus): 3.13 µg/mL (≈ 12 µM)
MIC ([7]; Escherichia coli, 881): 0.39 µg/mL (≈ 1.49 µM)
MIC ([8]; Escherichia coli, 139): 0.78 µg/mL (≈ 2.99 µM)
MIC ([9]; TYPHIMURIUM): 0.78 µg/mL (≈ 2.99 µM)
MIC ([10]; Bordetella, OKM1): 1.56 µg/mL (≈ 5.97 µM)
MIC ([11]; Escherichia coli, S6W): 0.39 µg/mL (≈ 1.49 µM)
MIC ([12]; Salmonella enterica, TYPHIMURIUM): 0.39 µg/mL (≈ 1.49 µM)
MIC ([13]; Pasteurella multocida): 0.2 µg/mL (≈ 0.766 µM)

More lines, now with the values ahead:

MIC [1, 16]: 0.1 µg/mL (≈ 0.248 µM)
MIC [2]: 0.1 µg/mL (≈ 0.248 µM)
MIC [3, 17]: 0.1 µg/mL (≈ 0.248 µM)
MIC [4, 18]: 0.025 µg/mL (≈ 0.062 µM)
MIC [5, 19]: 0.025 µg/mL (≈ 0.062 µM)
MIC [6, 20]: 0.78 µg/mL (≈ 1.93 µM)
MIC [7, 21]: 0.78 µg/mL (≈ 1.93 µM)
MIC [8, 22]: 0.78 µg/mL (≈ 1.93 µM)
MIC [9, 23]: 1.56 µg/mL (≈ 3.87 µM)
MIC [10, 24]: 0.78 µg/mL (≈ 1.93 µM)
MIC [11, 25]: 0.78 µg/mL (≈ 1.93 µM)
MIC [12, 26]: 0.78 µg/mL (≈ 1.93 µM)
MIC [13, 27]: 0.1 µg/mL (≈ 0.248 µM)
Compound: CCCCN1CCN(c2c(F)cc3c(=O)c(C(=O)O)cn4c3c2OCC4C)CC1 (racemic) [Compound (5), 3(RS)-9-fluoro-2,3-dihydro-3-methyl-10-(4-n-butyl-1-piperazinyl)-7-oxo-7H-pyrido[1,2,3-de] [1,4]benzoxazine-6-carboxylic acid]

MIC [6, 20]: 0.2 µg/mL (≈ 0.514 µM)
MIC [7, 21]: 0.2 µg/mL (≈ 0.514 µM)
MIC [8, 22]: 0.2 µg/mL (≈ 0.514 µM)
MIC [9, 23]: 0.2 µg/mL (≈ 0.514 µM)
MIC [10, 24]: 0.39 µg/mL (≈ 1 µM)
MIC [11, 25]: 0.2 µg/mL (≈ 0.514 µM)
MIC [12, 26]: 0.2 µg/mL (≈ 0.514 µM)
Compound: CCCN1CCN(c2c(F)cc3c(=O)c(C(=O)O)cn4c3c2OC[C@@H]4C)CC1 [Compound (7), 3S-9-fluoro-2,3-dihydro-3-methyl-10-(4-n-propyl-1-piperazinyl)-7-oxo-7H-pyrido[1,2,3-de] [1,4]benzoxazine-6-carboxylic acid]
